# System: ICH mice
# Test: MRI lesion, hematoma and perihematomal edema volume in intracerebral hemorrhage (ICH) mouse model
# Type: in vivo
# Settings: at 3 days after ICH, brain MRI, vs vehicle
# From the text: The intracerebral hemorrhage (ICH) model in mice was used to illustrate the protective benefits of the compounds of this disclosure, and FIG. 1 depicts the procedure in preparing this model. ICH was induced in C57 B/L6 male mice by the injection of an autologous blood or collagenase as previously described (Lauer et al., Circulation 124: 1654-1662 (2011); Rynkowski et al., Nat. Protoc. 3:122-128 (2008)). Mice were anesthetized using isoflurane inhalation and fixed on a stereotactic frame. A burr hole was drilled on the right side of the skull at 2.3 mm lateral to the midline and 0.5 mm anterior to the bregma. For the autologous blood model, 30 μl of non-heparinized blood was withdrawn from the angular vein. The first 5 μl blood was injected at a depth of 3 mm beneath the hole, and the rest 25 μl blood were injected at 3.7 mm beneath the hole with a rate of 1 μl/min. In the collagenase model, 0.038 U of the bacterial collagenase (in 0.5 μl saline) was infused to the striatum (0.5 mm anterior, 2.3 mm right lateral, and 3.5 mm deep relative to bregma) at a speed of 0.5 μl/min. Mice on the sham control were injected with an equal volume of saline. Throughout the procedure, the body temperature was maintained at 37° C. with a homeothermic blanket. After the surgery, mice were under observation with free access to food and water. […]
# The total lesion volume was measured on the 7T small-animal MM scanner (Bruker, Corp., USA) as described (Li et al., 2017). The T2-weighted water imaging was recorded with following parameters (repetition time (TR)=4500 ms, echo time (TE)=65.5 ms, field of view (FOV)=28×28 mm^2, image matrix=256×256, at 0.5-mm slice thickness). […] The volumes were manually outlined and calculated by multiplying the sum of the volume by the distance between sections (0.5 mm) using MIPAV software. PHE volumes were calculated as total lesion volume minus hematoma volume. MRI data were analyzed by two investigators blinded to experimental groups.
row,SMILES,peri-hematomal edema
1,O=C1c2n[nH]c(-c3ccccn3)c2C(c2ccc(Cl)cc2)N1C1CCOCC1 (racemic) [Comp14],significantly reduced

# Same assay, conditions: brain MRI, vs vehicle
row,SMILES,hematoma size
1,O=C1c2n[nH]c(-c3ccccn3)c2C(c2ccc(Cl)cc2)N1C1CCOCC1 (racemic) [Comp14],no difference

# Molecular target: T1, FPR1 (UniProt P21462)
# T1 sequence (P21462 1-350): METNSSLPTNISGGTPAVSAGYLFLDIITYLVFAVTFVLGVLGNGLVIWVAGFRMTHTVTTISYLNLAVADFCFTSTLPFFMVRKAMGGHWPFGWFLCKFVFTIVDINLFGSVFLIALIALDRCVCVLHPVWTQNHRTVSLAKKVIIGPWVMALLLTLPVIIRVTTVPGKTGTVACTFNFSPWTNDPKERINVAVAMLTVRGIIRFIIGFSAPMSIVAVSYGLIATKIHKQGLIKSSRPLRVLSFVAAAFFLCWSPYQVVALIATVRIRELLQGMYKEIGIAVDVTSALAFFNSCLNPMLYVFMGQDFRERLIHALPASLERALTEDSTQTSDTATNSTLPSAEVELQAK
# Test: fMLP-FPR1 mediated calcium signaling assay in FPR1-overexpressing 293T cells
# Type: cell-based, human or mouse
# Settings: inhibition of fMLP-FPR1 mediated intracellular calcium change; hFPR1 or mFPR1 overexpressing 293T cells; 10 min preincubation; INDO-1 AM, FACS
# Procedure: The effects of the compounds of this disclosure on regulating the FPR1-mediated cell signaling were measured by monitoring the cellular calcium level change, as illustrated by the exemplary examples in Table 2. The dose response of the illustrated examples are reported categorically using the following ranking criteria: *** (IC50≤100 nM); ** (IC50≥100 to ≤1000 nM); * (IC50≥1000 to ≤10,000 nM); N.D.—not detected.
# The coding DNA sequence (CDS) of human FPR1 (NM_001193306) and mouse FPR1 (NM_013521) were cloned and inserted to the lentivirus vector GV367 (Vector information:http://www.genechem.com.cn/index/supports/tool_search.html?keywords=GV367) under the conduction of pCMV promoter. 293T cells were cultured in H-DMEM supplemented with 10% FBS and 1% penicillin-streptomycin (PS) at 37° C. in 5% CO2 Incubator. 293T cells were transfected with lentivirus vector GV367 containing the CDS of human or mouse FPR1 for 24 h and then cultured with complete medium for another 48 h. At 72 h after transfected, cells were passaged, and 5 μg/ml puromycin was added to screen FPR1-transfected 293T cells. The overexpression of human or mouse FPR1 in 293 T cells were detected by immunostaining with anti-mouse or human FPR1 antibodies (Biolegend or Antibody Online).
# Cultured hFPR1 or mFPR1 overexpressing 293T cells were labeled with 1 μM INDO-1 AM calcium sensor dye (eBioscience) for 30 min at 37° C. After washed with 1×PBS, cells were resuspended with H-DMEM containing 3% FBS, and were maintained on ice prior to the measurement of intracellular calcium concentration. To measure the inhibitory potency of designed potential FPR1 antagonists, hFPR1 or mFPR1 overexpressing 293T cells were incubated with the compound for 10 min at room temperature. The cytoplasmic calcium levels were then measured by FACS Aria III at 37° C. prior to and after the stimulation of fMLP. We defined the immunofluorescence intensity of indo-1 AM before adding fMLP as the basal value, and the intensity at the peak immunofluorescence reduction after adding fMLP as minimum value for each sample. The change of intracellular calcium was calculated as follow: (basal value−minimum value)/basal value×100%. The IC50 of each compound in inhibiting fMLP-FPR1 mediated intracellular calcium concentration in 293T cells were automatically calculated with Prism 8.0.2 software (GraphPad) after inputting a series of change of intracellular calcium at multiple concentration gradients (from 0 nM to 100 μM).
row,SMILES,IC50
1,"CO[C@H]1CC[C@@H](N2C(=O)c3n[nH]c(-c4cc(C)ccc4O)c3C2c2ccc(C(F)(F)F)cc2)CC1 (mixture of isomers) [Compound 7, rac-3-(2-hydroxy-5-methylphenyl)-5-((1S,4S)-4-methoxycyclohexyl)-4-(4-(trifluoromethyl)phenyl)-4,5-dihydropyrrolo[3,4-c]pyrazol-6(2H)-one]",1 to 10 µM
2,"Cc1ccc(O)c(-c2[nH]nc3c2C(c2ccc(C(F)(F)F)cc2)N(C2CCNCC2)C3=O)c1 (racemic) [Compound 4, Rac-3-(2-hydroxy-5-methylphenyl)-5-(piperidin-4-yl)-4-(4-(trifluoromethyl)phenyl)-4,5-dihydropyrrolo[3,4-c]pyrazol-6(2H)-one]",1 to 10 µM
3,"CC(=O)N1CCC(N2C(=O)c3n[nH]c(-c4cc(C)ccc4O)c3C2c2ccc(C(F)(F)F)cc2)CC1 (racemic) [Compound 5, Rac-5-(1-acetylpiperidin-4-yl)-3-(2-hydroxy-5-methylphenyl)-4-(4-(trifluoromethyl)phenyl)-4,5-dihydropyrrolo[3,4-c]pyrazol-6(2H)-one]",0.1 to 1 µM
4,"COC1CCC(N2C(=O)c3n[nH]c(-c4cc(C)ccc4O)c3C2c2ccc(C(F)(F)F)cc2)CC1 (racemic) [Compound 8, Rac-3-(2-hydroxy-5-methylphenyl)-5-((1r,4r)-4-methoxycyclohexyl)-4-(4-(trifluoromethyl)phenyl)-4,5-dihydropyrrolo[3,4-c]pyrazol-6(2H)-one]",1 to 10 µM
5,"O=C1c2n[nH]c(-c3cc(Cl)ccc3O)c2C(c2ccc(C(F)(F)F)cc2)N1C1CCOCC1 (racemic) [Compound 9, Rac-3-(5-chloro-2-hydroxyphenyl)-5-(tetrahydro-2H-pyran-4-yl)-4-(4-(trifluoromethyl)phenyl)-4,5-dihydropyrrolo[3,4-c]pyrazol-6(2H)-one]",0.1 to 1 µM
6,"O=C1c2n[nH]c(-c3cc(F)ccc3O)c2C(c2ccc(Cl)cc2)N1C1CCOCC1 (racemic) [Compound 10, Rac-4-(4-chlorophenyl)-3-(5-fluoro-2-hydroxyphenyl)-5-(tetrahydro-2H-pyran-4-yl)-4,5-dihydropyrrolo[3,4-c]pyrazol-6(2H)-one]",1 to 10 µM
7,"O=C1c2n[nH]c(-c3cc(F)ccc3O)c2C(c2ccc(C(F)(F)F)cc2)N1C1CCOCC1 (racemic) [Compound 13, rac-3-(5-fluoro-2-hydroxyphenyl)-5-(tetrahydro-2H-pyran-4-yl)-4-(4-(trifluoromethyl)phenyl)-4,5-dihydropyrrolo[3,4-c]pyrazol-6(2H)-one]",1 to 10 µM
8,"O=C1c2n[nH]c(-c3ccccn3)c2C(c2ccc(Cl)cc2)N1C1CCOCC1 (racemic) [Compound 14, Rac-4-(4-chlorophenyl)-3-(pyridin-2-yl)-5-(tetrahydro-2H-pyran-4-yl)-4,5-dihydropyrrolo[3,4-c]pyrazol-6(2H)-one]",1 to 10 µM
9,"Cc1ccc(O)c(-c2[nH]nc3c2[C@H](c2ccc(C(F)(F)F)cc2)N(C2CCOCC2)C3=O)c1 (single isomer, unassigned) [Compound 2]",0.1 to 1 µM
10,"Cc1ccc(O)c(-c2[nH]nc3c2[C@@H](c2ccc(C(F)(F)F)cc2)N(C2CCOCC2)C3=O)c1 (single isomer, unassigned) [Compound 3]",1 to 10 µM
11,"O=C1c2n[nH]c(-c3cc(F)ccc3O)c2[C@H](c2ccc(Cl)cc2)N1C1CCOCC1 (single isomer, unassigned) [Compound 11]",1 to 10 µM
12,"O=C1c2n[nH]c(-c3cc(F)ccc3O)c2[C@@H](c2ccc(Cl)cc2)N1C1CCOCC1 (single isomer, unassigned) [Compound 12]",1 to 10 µM
